Tests used:
[1] = system: VPA-exposed rats; test: Short-term memory, novel object recognition test, prenatal VPA model; assay type: in vivo, rat
Experimental: Pregnant Sprague-Dawley rats (Charles River, Calco, Italy), received a single intraperitoneal injection of 500 mg/kg sodium valproate on the 12.5 day after conception, and control females were injected with physiological saline at the same time. Sodium valproate (Sigma Aldrich, Milan, IT) was dissolved in saline at a concentration of 250 mg/ml.
CBDV was dissolved in ethanol, cremophor and saline (1:1:18). Symptomatic treatment with CBDV at doses of 0.2, 2, 20, and 100 mg/kg/day i.p. was performed starting from PND 34 (early adolescence) till 56 (early adulthood), both in male and female offspring of dams injected with VPA 500 mg/kg (or vehicle) on day 12.5 after conception. […]
Short-term memory: The experimental apparatus used for the object recognition test was an open-field box (43×43×32 cm) made of Plexiglas, placed in a dimly illuminated room. The experiment was performed and analysed as previously described (Zamberletti et al, 2014). […]
Each animal was placed in the arena and allowed to explore two identical previously unseen objects for 5 minutes (familiarization phase). […] During the test phase the time spent exploring the familiar object (Ef) and the new object (En) was videotaped and recorded separately by two observers blind to the treatment groups and the discrimination index was calculated as follows: [(En−Ef)/(En+Ef)]×100.

[2] = system: Fmr1 KO mice; test: Novel object recognition task in Fragile X model; assay type: in vivo, mouse
Experimental: Fmr1 KO mice and wild type mice were obtained and housed four per cage in a temperature of 21° C.±1° C. and humidity of 55%±10% controlled environment. Food and water were available ad libitum. All experiments were performed during the light phase of a 12 hour light/dark cycle (08:00 to 20:00). Animals were handled for one week before the start of experiments. All behavioural tests were performed by researchers blind to the different experimental groups.
On day one mice were habituated for 10 minutes to the empty V-maze in which the task was to be performed. On the second day the mice went back to the maze for 10 minutes which contained two identical objects at the end of each corridor in the V-maze.
The following day the mice were placed again in the same maze for a further 10 minutes but one of the familiar objects was replaced for a novel object. The total time spent exploring the novel and familiar object was recorded. A discrimination index was calculated as the difference between the time spent exploring the novel and familiar object divided by the total time exploring the two objects. A high discrimination index (0.3-0.5) is considered to reflect memory retention for the familiar object.
Adult mice (10-15 weeks old) were treated either acutely with one dose of CBDV on […] or were treated once daily with CBDV for 7 consecutive days. Mice were evaluated in the novel object recognition task after the first and sixth day of CBDV administration. Doses of CBDV used were 2, 10, 20, 100 and 200 mg/kg.

[3] = system: PCP-treated rats; test: Social interaction test, sub-chronic PCP model of schizophrenia; assay type: in vivo, rat
Experimental: Female hooded-Lister rats were used for this experiment. Rats were housed in groups of 5 under standard laboratory conditions under a 12 hr light: dark cycle, lights on at 0700 hr. Testing was carried out in the light phase.
Rats were randomly assigned to two treatment groups and treated with vehicle, n=20 (distilled water, i.p.) or Phencyclidine hydrochloride (PCP), n=100 (2 mg/kg, i.p. twice daily for 7-days). PCP was dissolved in distilled water. This was followed by a 7-day wash out period before the rats were tested following acute treatment with CBDV, risperidone or vehicle.
Risperidone (0.1 mg/kg) was dissolved in a minimum volume of acetic acid, made up to volume with distilled water and pH adjusted to 6 with 0.1M NaOH and administered via the i.p. route in a volume of 1 ml/kg, 60 min prior to testing.
CBDV at 2, 10 or 20 mg/kg was dissolved in 2:1:17 (Ethanol:Cremofor:Saline 0.9%) and administered via the i.p. route in a volume of 5 ml/kg, 60 min prior to testing.
The social interaction test is performed in an open-field comprising a square box made of Plexiglas (52×52×31 cm) placed 27 cm above the floor on a moveable trolley. The floor of the box is white with black gridlines forming 9 identical squares on it. All other walls are black. A video camera connected to a video recorder and monitor is positioned above the box. The object used for the test consists of a heavy structure made of metal that cannot be displaced by the animals.
The rats were habituated to the test environment and arena prior to the test day. Habituation consists of placing all rats from one cage together in the empty test arena for one hour for three days including the day before the test day.
Pairs of rats, weight matched (15-20 g) and unfamiliar to each other, receiving either no treatment (n=70 “conspecific” rats) or different treatments (PCP and Vehicle; n=10 “tested” rats or PCP+Drug; n=50 “tested” rats) were placed in the test arena together for 10 min and behaviour assessed as described below.
An inanimate object such as an unopened drinks can is also placed in the centre of the arena to measure any differences in interaction of the test animal with an unfamiliar animal as opposed to an unfamiliar object. After each 10 minute trial, the object and arena are cleaned with 10% alcohol in an attempt to remove traces of any olfactory cues. All testing is carried out under standard room illumination levels (70 cd/m2).
Behaviour in both trials was recorded on video for subsequent blind scoring. A behavioural scoring software program (Hindsight, Scientific programming services) is used to score the following parameters: • Investigative sniffing behaviour: sniffing the conspecific's snout or parts of the body including the anogenital region; • Following: rat moves after the conspecific i.e. a vehicle treated rat of the same species, around the arena; • Avoidances: actively turning away when approached by the conspecific animal; • Investigation of object: exploration of object placed in centre of the arena; and • Locomotor activity is recorded by counting the total number of sectors (i.e. lines) crossed by the test rat. Results

SMILES: C=C(C)[C@@H]1CCC(C)=C[C@H]1c1c(O)cc(CCC)cc1O [CBDV, Cannabidivarin]
- short-term memory deficit, discrimination index (FIG. 2C) ([1]; 2, 20 and 100 mg/kg, male and female VPA rats): completely and significantly reversed
- recognition memory per se ([1]; vehicle-treated (non VPA) rats): without affecting per se recognition memory
- discrimination index (FIG. 3A) [2]: no effect
- increase of discrimination index over vehicle treated mice (FIG. 3A) ([2]; acute treatment, 2 mg/kg, knockout mice): not significant
- discrimination index vs vehicle treated knockout mice (FIG. 3B) ([2]; chronic treatment once daily for 7 days, 20 and 100 mg/kg, knockout mice): statistically significant increase
- time spent avoiding the other rat (FIG. 18C) ([3]; CBDV 20 mg/kg): reduce the amount of time
- time spent following the other rat (FIG. 18B) ([3]; CBDV 20 mg/kg): increased the amount of time
- time spent sniffing the other rat (FIG. 18A) ([3]; CBDV 10 and 20 mg/kg): significantly increased
- PCP effects on social interaction (sniffing, following, avoiding) (FIG. 18) ([3]; CBDV acute i.p.): reverse these effects in a statistically significant manner

Source: patent publication US11752111B2, “Use of cannabidivarin in the treatment of autism spectrum disorder, associated disorders and schizophrenia” (GW Research Limited, priority 2016, dated 2023)
